Our source for the Activity, inhibition and IC50 values is ChEMBL document CHEMBL6134828, “Discovery, synthesis, and biological mechanism evaluation of novel quinoline derivatives as potent NLRP3 inhibitors” (Eur J Med Chem, 2025).

SMILES strings stand for the structures. The source made the active and inactive calls. No cut-off for these calls is given here.

Series [1] has as its system J774.A1. The experiment in a line: Effect on TNF-alpha secretion in LPS-induced mouse J774.A1 cells at 0.2 to 3.2 uM pre-incubated with compound for 2 hrs followed by LPS-induction and measured after 5 hrs by ELISA. The class given is functional, cell-based. Conditions: dose 0.2-3.2 µM, time 7.0 hrs.
Series [2] concerns J774.A1. The experiment in a line: Inhibition of NFkappaB signaling pathway in LPS-induced mouse J774.A1 cells assessed as reduction in IkappaBalpha phosphorylation at 3.2 uM pre-incubated with compound for 2 hrs followed by LPS-induction and measured after 5 hrs by Western blot analysis. The class given is cell-based. Conditions: time 7.0 hrs.
For series [3], the target named is NACHT, LRR and PYD domains-containing protein 3 (Mus musculus) (UniProt Q8R4B8). The experiment in a line: Inhibition of NLRP3 inflammasome activation in LPS/nigericin-induced mouse J774.A1 cells assessed as reduction in LDH level […]. The class given is cell-based. The conditions noted are these: dose 0.2-3.2 µM.
For series [4] the target is unchanged. Put plainly: Inhibition of LPS/nigericin-induced NLRP3 oligomerization in mouse J774.A1 cells at 3.2 uM by SDS-PAGE analysis. The class given is cell-based.
In series [5] the test system is J774.A1. The experiment in a line: Cytotoxicity against mouse J774.A1 cells at 0.4 to 6.4 uM incubated for 24 hrs by CCK-8 assay. The class given is toxicity, cell-based. The conditions noted are these: j774.a1, 24 h, dose 0.4-6.4 µM.
The target of series [6] is NACHT, LRR and PYD domains-containing protein 3 (Mus musculus, UniProt Q8R4B8). Put plainly: Inhibition of NLRP3 in mouse J774.A1 cells assessed as reduction IL-1beta release by ELISA. The class given is cell-based.
Series [7] addresses T1, Apoptosis-associated speck-like protein containing a CARD (Mus musculus) (UniProt Q9EPB4).
T1 sequence (whole entry): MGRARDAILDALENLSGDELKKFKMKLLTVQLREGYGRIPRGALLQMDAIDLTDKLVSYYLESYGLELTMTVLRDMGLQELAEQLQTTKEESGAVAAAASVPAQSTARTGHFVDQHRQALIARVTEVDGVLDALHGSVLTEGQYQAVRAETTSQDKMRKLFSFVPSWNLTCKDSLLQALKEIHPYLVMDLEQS
Put plainly: Inhibition of LPS/nigericin-induced ASC oligomerization in mouse J774.A1 cells at 0.8 to 3.2 uM by immunoblot analysis. The format is cell-based. The conditions noted are these: dose 0.8-3.2 µM.

The target of series [8] is NACHT, LRR and PYD domains-containing protein 3 (Mus musculus) (UniProt Q8R4B8). The experiment in a line: Inhibition of NLRP3 inflammasome activation in LPS/nigericin-induced mouse J774.A1 cells assessed as inhibition of caspase-1 p20 subunit formation at 0.2 to 3.2 uM by Western blot analysis. The class given is cell-based. Conditions: dose 0.2-3.2 µM.
Series [9] concerns Mus musculus. Put plainly: Antiinflammatory activity against DSS-induced ulcerative colitis male C57BL/6 mouse model assessed as amelioration of epithelial damage in colonic tissue at 7.5 to 30 mg/kg administered via oral gavage for 4 days. The format is functional, organism-based. Conditions: dose 7.5-30 mg/kg, time 4.0 day.
Series [10] deals with Mus musculus. Put plainly: Antiinflammatory activity against DSS-induced ulcerative colitis male C57BL/6 mouse model assessed as reduction in cleaved GSDMD level in colonic tissue at 7.5 to 30 mg/kg administered via oral gavage for 4 days by Western blot analysis. The class given is functional, organism-based. The conditions noted are these: dose 7.5-30 mg/kg, time 4.0 day.

The target in series [11] is NACHT, LRR and PYD domains-containing protein 3 (Mus musculus) (UniProt Q8R4B8). The experiment in a line: Inhibition of NLRP3 inflammasome activation in LPS/nigericin-induced mouse J774.A1 cells assessed as reduction in IL-1beta release by ELISA. The conditions noted are these: dose 0.125-4 µM. The class given is cell-based.
The subject of series [12] is Mus musculus. The experiment in a line: Antiinflammatory activity against DSS-induced ulcerative colitis male C57BL/6 mouse model assessed as reduction in fecal blood index at 7.5 to 30 mg/kg administered via oral gavage for 4 days. The format is functional, organism-based. Conditions: dose 7.5-30 mg/kg, time 4.0 day.
The target of series [13] is NACHT, LRR and PYD domains-containing protein 3 (Mus musculus) (UniProt Q8R4B8). The experiment in a line: Inhibition of NLRP3 inflammasome activation in LPS/nigericin-induced mouse BMDM cells assessed as reduction in IL-1beta release by ELISA. The format is cell-based. The conditions noted are these: dose 0.125-4 µM.
Series [14] concerns J774.A1. Put plainly: Effect on p65 level in LPS-induced mouse J774.A1 cells at 0.2 to 3.2 uM pre-incubated with compound for 2 hrs followed by LPS-induction and measured after 5 hrs by Western blot analysis. The format is functional, cell-based. Conditions: dose 0.2-3.2 µM, time 7.0 hrs.
Series [15] deals with Mus musculus. Put plainly: In vivo inhibition of NLRP3 in colonic tissue of DSS-induced ulcerative colitis male C57BL/6 mouse model at 7.5 to 30 mg/kg administered via oral gavage for 4 days by Western blot analysis. The format is functional, organism-based. Conditions: dose 7.5-30 mg/kg, time 4.0 day.
The target of series [16] is NACHT, LRR and PYD domains-containing protein 3 (Mus musculus) (UniProt Q8R4B8). The experiment in a line: Inhibition of NLRP3 inflammasome activation in LPS/nigericin-induced mouse J774.A1 cells assessed as inhibition of mature IL-1beta release at 0.2 to 3.2 uM by Western blot analysis. The format is cell-based. Conditions: dose 0.2-3.2 µM.
Series [17] deals with Mus musculus. Put plainly: Antiinflammatory activity against DSS-induced ulcerative colitis male C57BL/6 mouse model assessed as amelioration of mucosal ulceration in colonic tissue at 7.5 to 30 mg/kg administered via oral gavage for 4 days. The conditions noted are these: dose 7.5-30 mg/kg, time 4.0 day. The format is functional, organism-based.
For series [18], the system named is HEK-293T. The experiment in a line: Cytotoxicity against HEK293T cells at 0.4 to 6.4 uM incubated for 24 hrs by CCK-8 assay. Conditions: human, dose 0.4-6.4 µM. The class given is toxicity, cell-based.
Series [19] has as its target NACHT, LRR and PYD domains-containing protein 3 (Mus musculus) (UniProt Q8R4B8). Put plainly: Inhibition of NLRP3 inflammasome activation in LPS/nigericin-induced mouse J774.A1 cells assessed as inhibition of GSDMD cleavage at 0.2 to 3.2 uM by Western blot analysis. The conditions noted are these: dose 0.2-3.2 µM. The class given is cell-based.
Series [20] addresses NLRP3-NEK7 (Mus musculus) (UniProt Q8R4B8+Q9ES74). The experiment in a line: Inhibition of NLRP3/NEK7 protein-protein interaction in LPS/nigericin-induced mouse J774.A1 cells incubated for 6 hrs by coimmunoprecipitation analysis. The format is cell-based.
The subject of series [21] is Mus musculus. The experiment in a line: Effect on DSS-induced body weight loss in male C57BL/6 mouse model of ulcerative colitis at 7.5 to 30 mg/kg administered via oral gavage for 4 days. The format is functional, organism-based. Conditions: dose 7.5-30 mg/kg, time 4.0 day.
Series [22] deals with NACHT, LRR and PYD domains-containing protein 3 (Mus musculus) (UniProt Q8R4B8). The experiment in a line: Inhibition of NLRP3 inflammasome activation in LPS/nigericin-primed mouse BMDM cells assessed as inhibition of ASC speck formation incubated for 1 hr by DAPI staining based immunofluorescence analysis. The format is cell-based.
The test system of series [23] is J774.A1. The experiment in a line: Effect on phosphorylated p65 level in LPS-induced mouse J774.A1 cells at 0.2 to 3.2 uM pre-incubated with compound for 2 hrs followed by LPS-induction and measured after 5 hrs by Western blot analysis. The format is functional, cell-based. Conditions: dose 0.2-3.2 µM, time 7.0 hrs.
Series [24] concerns Mus musculus. Put plainly: Antiinflammatory activity against DSS-induced ulcerative colitis male C57BL/6 mouse model assessed as amelioration of crypt loss in colonic tissue at 7.5 to 30 mg/kg administered via oral gavage for 4 days. Conditions: dose 7.5-30 mg/kg, time 4.0 day. The format is functional, organism-based.
Series [25] relates to Mus musculus. The experiment in a line: Antiinflammatory activity against DSS-induced ulcerative colitis male C57BL/6 mouse model assessed as increase in colon length at 7.5 to 30 mg/kg administered via oral gavage for 4 days. The conditions noted are these: dose 7.5-30 mg/kg, time 4.0 day. The class given is functional, organism-based.
Series [26] has as its system Mus musculus. The experiment in a line: Antiinflammatory activity against DSS-induced ulcerative colitis male C57BL/6 mouse model assessed as reduction in caspase-1 level in colonic tissue at 7.5 to 30 mg/kg administered via oral gavage for 4 days by Western blot analysis. The class given is functional, organism-based. Conditions: dose 7.5-30 mg/kg, time 4.0 day.
Series [27] concerns the target Nlrp3/Pycard (Mus musculus) (UniProt Q8R4B8+Q9EPB4). The experiment in a line: Inhibition of NLRP3/ASC protein-protein interaction in LPS/nigericin-induced mouse J774.A1 cells at 3 uM by coimmunoprecipitation analysis. The format is cell-based.
In series [28] the test system is Mus musculus. Put plainly: Antiinflammatory activity against DSS-induced ulcerative colitis male C57BL/6 mouse model assessed as reduction in IL-1beta level in colonic tissue at 7.5 to 30 mg/kg administered via oral gavage for 4 days by ELISA. The format is functional, organism-based. Conditions: dose 7.5-30 mg/kg, time 4.0 day.

NACHT, LRR and PYD domains-containing protein 3, sequence (Q8R4B8 whole entry, the tested form may be a part): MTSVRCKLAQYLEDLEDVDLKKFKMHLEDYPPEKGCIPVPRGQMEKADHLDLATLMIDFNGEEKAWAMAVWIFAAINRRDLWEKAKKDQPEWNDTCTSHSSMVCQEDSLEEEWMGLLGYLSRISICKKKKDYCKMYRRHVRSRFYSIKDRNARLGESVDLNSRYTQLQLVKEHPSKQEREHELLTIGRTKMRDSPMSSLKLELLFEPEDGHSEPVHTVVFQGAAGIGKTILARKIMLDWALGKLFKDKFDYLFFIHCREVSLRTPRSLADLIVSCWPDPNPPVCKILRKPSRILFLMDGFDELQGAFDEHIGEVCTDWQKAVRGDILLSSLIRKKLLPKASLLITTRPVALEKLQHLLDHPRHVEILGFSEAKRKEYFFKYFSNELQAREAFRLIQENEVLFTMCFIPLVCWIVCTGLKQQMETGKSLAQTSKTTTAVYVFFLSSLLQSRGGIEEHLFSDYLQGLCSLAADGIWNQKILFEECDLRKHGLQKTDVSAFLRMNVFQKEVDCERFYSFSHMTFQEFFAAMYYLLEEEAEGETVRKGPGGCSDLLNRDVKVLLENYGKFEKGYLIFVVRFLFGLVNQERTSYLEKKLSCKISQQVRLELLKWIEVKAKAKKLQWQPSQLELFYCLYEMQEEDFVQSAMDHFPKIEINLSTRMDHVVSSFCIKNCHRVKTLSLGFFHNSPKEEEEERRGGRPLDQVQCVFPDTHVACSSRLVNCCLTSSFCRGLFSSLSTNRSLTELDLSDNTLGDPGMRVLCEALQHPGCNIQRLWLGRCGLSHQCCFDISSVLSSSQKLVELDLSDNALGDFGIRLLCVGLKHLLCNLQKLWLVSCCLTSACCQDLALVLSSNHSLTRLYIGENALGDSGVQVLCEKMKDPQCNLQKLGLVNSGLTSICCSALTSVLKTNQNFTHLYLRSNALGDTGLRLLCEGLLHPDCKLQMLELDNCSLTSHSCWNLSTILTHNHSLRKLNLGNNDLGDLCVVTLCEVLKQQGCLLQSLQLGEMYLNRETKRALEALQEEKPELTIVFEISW
NACHT, LRR and PYD domains-containing protein 3 (Mus musculus), sequence (Q8R4B8 whole entry, the tested form may be a part): as above
NLRP3-NEK7 (Mus musculus), sequence (Q8R4B8 whole entry, looked up): as the sequence (Q8R4B8 whole entry, the tested form may be a part) above
NLRP3-NEK7 (Mus musculus), sequence (Q9ES74 whole entry, looked up): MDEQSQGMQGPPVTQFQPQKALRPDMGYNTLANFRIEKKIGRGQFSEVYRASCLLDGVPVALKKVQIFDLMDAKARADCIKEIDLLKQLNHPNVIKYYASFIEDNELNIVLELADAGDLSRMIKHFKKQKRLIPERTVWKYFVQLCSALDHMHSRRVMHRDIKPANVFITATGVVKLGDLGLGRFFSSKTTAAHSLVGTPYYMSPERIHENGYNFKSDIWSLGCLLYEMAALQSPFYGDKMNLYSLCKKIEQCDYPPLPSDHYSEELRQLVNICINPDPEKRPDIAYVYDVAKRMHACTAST
Nlrp3/Pycard (Mus musculus), sequence (Q8R4B8 whole entry, looked up, one chain of several): as the sequence (Q8R4B8 whole entry, the tested form may be a part) above

For `CC[C@H](NC(=O)c1c(C)c(-c2cccc(F)c2)nc2c([N+](=O)[O-])cccc12)c1ccccc1`, the Activity entry was “No effect” in series [1]; “Non-toxic” in series [5]; “No effect” in series [14]; “Non-toxic” in series [18]; “No effect” in series [21]; “No effect” in series [23]. Besides, the inhibition result in series [2] was “Active; Slight Inhibitory Effect On P-Ikappabalpha”; in [3], “Dose-dependent-effect”; in series [11], “Dose-dependent-effect”; in series [13] it was “Dose-dependent-effect”. For the same molecule, the inhibition result in series [4], in [7], in series [8], in series [15], in [16] and in [19] was “Active” throughout. In addition, the inhibition entry in [22] and in [27] was “Active” each time. Besides, the IC50 in series [6] amounted to 180 nM. The outcome in series [9], in [10], in series [12], in series [17], in [24] and in series [25] was Active. The outcome in series [26] and in series [28] was Active. For the same molecule, the inhibition entry in series [20] is “inactive”.
As to `CSc1ccccc1NC(=O)c1cc(-c2ccccc2)nc2ccccc12`, the IC50 in [6] was 3080 nM.
`CC[C@H](NC(=O)c1c(C)c(-c2cccc(F)c2)nc2ccc(Br)cc12)c1ccccc1`: the IC50 in series [6] worked out at 1210 nM.
Still for that read-out and setting: in the case of `CCC(C)NC(=O)c1cc(-c2ccccc2)nc2ccccc12` (configuration not stated) it was 39500 nM.
The same measure, in the same setting: in the case of `CC[C@H](NC(=O)c1c(C)c(-c2ccc(F)cc2)nc2ccccc12)c1ccccc1` it was 1120 nM; in that of `CC[C@H](NC(=O)c1cc(-c2cccc(F)c2)nc2ccccc12)c1ccccc1`, 2820 nM; in that of `O=C(Nc1ccccc1)c1cc(-c2ccccc2)nc2ccccc12`, 2070 nM.
Still for that read-out and setting: the result for `O=C(Nc1ccccc1OCc1ccccc1)c1cc(-c2ccccc2)nc2ccccc12` reads 77000 nM; that for `COC(=O)[C@@H](NC(=O)c1cc(-c2ccccc2)nc2ccccc12)c1ccccc1`, 3000 nM; that for `CC[C@H](NC(=O)c1c(C)c(-c2cccc(F)c2)nc2c(NS(=O)(=O)C3CC3)cccc12)c1ccccc1`, 420 nM.
`CC[C@H](NC(=O)c1c(C)c(-c2cccc(F)c2)nc2ccc(Cl)cc12)c1ccccc1`: in [6], the half-inhibitory concentration (IC50) stood at 810 nM.
The same measure, in the same setting: the result for `CC[C@H](NC(=O)c1c(C)c(-c2cccc(F)c2)nc2ccc([N+](=O)[O-])cc12)c1ccccc1` reads 940 nM.
On the same count and under the same terms, the result for `O=C(NC1CC(F)(F)C1)c1cc(-c2ccccc2)nc2ccccc12` reads 5800 nM; that for `CC[C@H](NC(=O)c1ccnc2ccccc12)c1ccccc1`, 126000 nM; that for `CC[C@H](NC(=O)c1cc(-c2ccccc2)nc2ccccc12)c1ccccc1` [AZD-7624], 1300 nM.
On the same count and under the same terms, the result for `CC[C@H](NC(=O)c1c(C)c(-c2cccc(F)c2)nc2c(OC)cccc12)c1ccccc1` reads 1060 nM.
In the case of `CC[C@H](NC(=O)c1c(C)c(-c2cccc(F)c2)nc2ccccc12)c1ccccc1`, the inhibition entry in series [4], in [7], in series [22] and in [27] was “Active” throughout. The Activity result in series [5] is recorded as “Non-toxic”. The IC50 in [6] was 590 nM. In series [20], the inhibition result was “inactive”.
As to `CC[C@H](NC(=O)c1c(C)c(-c2cccc(F)c2)nc2cc(Br)ccc12)c1ccccc1`, the half-maximal inhibitory concentration (IC50) in series [6] was determined as 920 nM.
On the same count and under the same terms, in the case of `Cc1ccccc1NC(=O)c1cc(-c2ccccc2)nc2ccccc12` it was 13800 nM.
